The results in this text go back to patent publication US11459323B2, “Monocyclic β-lactam compound for treating bacterial infection” (MEDSHINE DISCOVERY INC., priority 2018, dated 2022).

For assay [1], the system named is Acinetobacter baumannii ATCC 17978. As to the kind of experiment: MIC on Acinetobacter baumannii strains. Format: cell-based. The settings on record: ATCC17978. An excerpt: (§1) Twelve strains of Acinetobacter baumannii, A. baumannii ATCC 17978 (ATCC-BAA-1605, ATCC-BAA-1789, ATCC-BAA-1790, ATCC-BAA-1791, ATCC-BAA-1792, ATCC-BAA-1793, ATCC-BAA-1794, ATCC-BAA-1795, ATCC-BAA-1799, ATCC-BAA-1800, ATCC 19606, ATCC 17978) were used to determine the minimum inhibitory concentration (MIC) of the compounds by micro-liquid dilution method according to the Institute of Clinical and Laboratory Standard (CLSI) requirements.

Assay [2] has as its system Acinetobacter baumannii ATCC 19606. Put plainly: MIC on Acinetobacter baumannii strains. Format: cell-based. As to conditions: ATCC19606.
Text: as §1

Assay [3] relates to Acinetobacter baumannii ATCC-BAA-1605. As to the kind of experiment: MIC on Acinetobacter baumannii strains. It is filed as cell-based. As to conditions: ATCCBAA1605, ATCC-BAA-1605, read-out: MIC.
Text: as §1

In assay [4] the test system is Acinetobacter baumannii ATCC-BAA-1789. As to the kind of experiment: MIC on Acinetobacter baumannii strains. Format: cell-based. The settings on record: ATCCBAA1789.
Text: as §1

For assay [5], the system named is Acinetobacter baumannii ATCC-BAA-1790. Put plainly: MIC on Acinetobacter baumannii strains. The settings on record: ATCCBAA1790, ATCC-BAA-1790, read-out: MIC. Format: cell-based.
Text: as §1

Assay [6] relates to Acinetobacter baumannii ATCC-BAA-1791. As to the kind of experiment: MIC on Acinetobacter baumannii strains. The settings on record: ATCCBAA1791. Format: cell-based.
Text: as §1

For assay [7], the system named is Acinetobacter baumannii ATCC-BAA-1792. As to the kind of experiment: MIC on Acinetobacter baumannii strains. Format: cell-based. The settings on record: ATCCBAA1792, ATCC-BAA-1792, read-out: MIC.
Text: as §1

For assay [8], the system named is Acinetobacter baumannii ATCC-BAA-1793. Put plainly: MIC on Acinetobacter baumannii strains. It is filed as cell-based.
Text: as §1

The subject of assay [9] is Acinetobacter baumannii ATCC-BAA-1794. Put plainly: MIC on Acinetobacter baumannii strains. Format: cell-based. The settings on record: ATCCBAA1794, ATCC-BAA-1794, read-out: MIC.
Text: as §1

The subject of assay [10] is Acinetobacter baumannii ATCC-BAA-1795. Put plainly: MIC on Acinetobacter baumannii strains. Format: cell-based. The settings on record: ATCCBAA1795.
Text: as §1

In assay [11] the test system is Acinetobacter baumannii ATCC-BAA-1799. As to the kind of experiment: MIC on Acinetobacter baumannii strains. The settings on record: ATCCBAA1799, ATCC-BAA-1799, read-out: MIC. It is filed as cell-based.
Text: as §1

The subject of assay [12] is Acinetobacter baumannii ATCC-BAA-1800. As to the kind of experiment: MIC on Acinetobacter baumannii strains. It is filed as cell-based.
Text: as §1

Assay [13] has as its system K. pneumoniae ATCC BAA-205 (TEM-1/SHV-1/SHV-12). As to the kind of experiment: MIC by micro-liquid dilution method (CLSI). Format: cell-based, Klebsiella pneumonia. The settings on record: Klebsiella pneumoniae, ATCCBAA205; K. pneumoniae ATCCBAA-205; read-out: MIC.
Assay [14] has as its system K. pneumoniae ATCC BAA-1705 (KPC-2). As to the kind of experiment: MIC by micro-liquid dilution method (CLSI). Format: cell-based, Klebsiella pneumonia. The settings on record: Klebsiella pneumoniae, ATCCBAA1705; K. pneumoniae ATCCBAA-1705; read-out: MIC.
Assay [15] has as its system K. pneumoniae ATCC BAA-2470 (NDM-1). As to the kind of experiment: MIC by micro-liquid dilution method (CLSI). It is filed as cell-based, Klebsiella pneumonia. The settings on record: Klebsiella pneumoniae, ATCCBAA2470; K. pneumoniae ATCCBAA-2470; read-out: MIC.
Assay [16] relates to E. coli ATCC BAA-2523 (OXA-48). Put plainly: MIC by micro-liquid dilution method (CLSI). As to conditions: Escherichia coli, ATCCBAA2523; E. coli ATCCBAA-2523; read-out: MIC. It is filed as cell-based. An excerpt: (§2) Three strains of Klebsiella pneumonia, K. pneumoniae ATCC BAA-205 (TEM-1/SHV-1/SHV-12), K. pneumoniae ATCC BAA-1705 (KPC-2), K. pneumoniae ATCC BAA-2470 (NDM-1); three strains of Pseudomonas aeruginosa, P. aeruginosa NCTC13437 (VIM-10; VEB-1), P. aeruginosa PA 14 and P. aeruginosa ATCC 35151; four strains of Escherichia coli, E. coli NCTC 13476 (IMP-1 type), E. coli ATCC BAA-2523 (OXA-48), E. coli MG1655Δtol C, E. coli ATCC 25922; one strain of Acinetobacter baumannii, A. baumannii ATCC 17978 and one strain of Staphylococcus aureus, S. aureus NRS384 were used to determine the minimum inhibitory concentration (MIC) of the compounds by micro-liquid dilution method according to the Institute of Clinical and Laboratory Standard (CLSI) requirements.

In the next assay the test system is E. coli MG1655Δtol C. As to the kind of experiment: MIC by micro-liquid dilution method (CLSI). Format: cell-based. The settings on record: Escherichia coli.
Text: as §2

In assay [17] the test system is E. coli NCTC 13476 (IMP-1 type). As to the kind of experiment: MIC by micro-liquid dilution method (CLSI). As to conditions: Escherichia coli; E. coli NCTC13476; read-out: MIC. It is filed as cell-based.
Text: as §2

The test system of a further assay is P. aeruginosa PA 14. As to the kind of experiment: MIC by micro-liquid dilution method (CLSI). Format: cell-based. As to conditions: Pseudomonas aeruginosa, PA14; P. aeruginosa PA 14; read-out: MIC.
Text: as §2

Another assay deals with P. aeruginosa ATCC 35151. Put plainly: MIC by micro-liquid dilution method (CLSI). It is filed as cell-based. The settings on record: Pseudomonas aeruginosa; P. aeruginosa ATCC35151; read-out: MIC.
A further assay deals with A. baumannii ATCC 17978. As to the kind of experiment: MIC by micro-liquid dilution method (CLSI). Format: cell-based. As to conditions: Acinetobacter baumannii; A. baumannii ATCC17978; read-out: MIC.
A further assay relates to E. coli ATCC 25922. As to the kind of experiment: MIC by micro-liquid dilution method (CLSI). Format: cell-based. The settings on record: Escherichia coli; E. coli ATCC25922; read-out: MIC.
[18] abbreviates: ATCCBAA1793, ATCC-BAA-1793, read-out: MIC.
[19] abbreviates: ATCCBAA1800, ATCC-BAA-1800, read-out: MIC.

≈ marks a conversion by molar mass, not a printed value. Where two headings read alike, the source gives them in different places.

The MIC is the least concentration at which growth counts as inhibited. Take `CC1(C)[C@H](NC(=O)/C(=N\OCCOc2ccc3c(c2)CC[N+](C)(CCCN)C3)c2csc(N)n2)C(=O)N1OS(=O)(=O)[O-]` (some centres unmarked) [Compound 5]: the MIC worked out at 1 µg/mL (≈ 1.6 µM) in assay [1]; 16 µg/mL (≈ 25.6 µM) in assay [2]; 16 µg/mL (≈ 25.6 µM) in [3]; 8 µg/mL (≈ 12.8 µM) in [4]; 8 µg/mL (≈ 12.8 µM) in assay [5]; 2 µg/mL (≈ 3.2 µM) in assay [6]. Moreover, the MIC in [7], in assay [8] (setting [18]), in [9], in assay [10], in [11] and in assay [12] (setting [19]) was 16 µg/mL (≈ 25.6 µM) throughout.
On to `C[C@@H](O)[C@H]1C(=O)N2C(C(=O)O)=C(SCCN=CN)C[C@H]12` [Imipenem, reference compound], for which the MIC in assay [1] is 0.25 µg/mL (≈ 0.835 µM); in assay [2], 0.5 µg/mL (≈ 1.67 µM); in [3] it was 32 µg/mL (≈ 107 µM); in [4] it was 16 µg/mL (≈ 53.4 µM); in assay [5], 64 µg/mL (≈ 214 µM); in assay [6], 32 µg/mL (≈ 107 µM). Besides, the MIC worked out at 64 µg/mL (≈ 214 µM) in assay [7]; 128 µg/mL (≈ 428 µM) in assay [8] (ATCCBAA1793); 32 µg/mL (≈ 107 µM) in [9]; 1 µg/mL (≈ 3.34 µM) in [10]; 64 µg/mL (≈ 214 µM) in assay [11]; 128 µg/mL (≈ 428 µM) in [12] (ATCCBAA1800).
As to `CC1(C)[C@H](NC(=O)/C(=N\OCCOc2ccc3c(c2)CCN(CCCNC(=N)N)C3)c2csc(N)n2)C(=O)N1OS(=O)(=O)O` [Compound 7], the MIC was 8 µg/mL (≈ 12.2 µM) in assay [13]; 4 µg/mL (≈ 6.12 µM) in assay [14]; 2 µg/mL (≈ 3.06 µM) in [15]; 0.25 µg/mL (≈ 0.382 µM) in assay [16]; no more than 0.125 µg/mL with E. coli MG1655Δtol C; 1 µg/mL (≈ 1.53 µM) in assay [17]. In addition, the MIC was found to be 16 µg/mL (≈ 24.5 µM) in the assay on P. aeruginosa PA 14; 0.5 µg/mL (≈ 0.765 µM) in the assay on P. aeruginosa ATCC 35151; 1 µg/mL (≈ 1.53 µM) in the assay on A. baumannii ATCC 17978; 0.5 µg/mL (≈ 0.765 µM) in the assay on E. coli ATCC 25922; 2 µg/mL (≈ 3.06 µM) in assay [1]; 8 µg/mL (≈ 12.2 µM) in assay [2]. Further, the MIC in assay [3] stood at 8 µg/mL (≈ 12.2 µM); in [4] it was 8 µg/mL (≈ 12.2 µM); in assay [5], 8 µg/mL (≈ 12.2 µM); in [6], 2 µg/mL (≈ 3.06 µM); in assay [7], 8 µg/mL (≈ 12.2 µM); in assay [8] (setting [18]), 4 µg/mL (≈ 6.12 µM). In addition, the MIC was 4 µg/mL (≈ 6.12 µM) in [9], 4 µg/mL (≈ 6.12 µM) in assay [10], 8 µg/mL (≈ 12.2 µM) in assay [11] and 4 µg/mL (≈ 6.12 µM) in assay [12] (setting [19]).
As to `CC1(C)[C@H](NC(=O)/C(=N\OCCOc2ccc3c(c2)CCN(CCCN)C3)c2csc(N)n2)C(=O)N1OS(=O)(=O)O` [Compound 6], the minimal inhibitory concentration (MIC) in assay [13] was 16 µg/mL (≈ 26.2 µM); in assay [14], 4 µg/mL (≈ 6.54 µM); in assay [15], 4 µg/mL (≈ 6.54 µM); in assay [16], 0.25 µg/mL (≈ 0.409 µM); in the assay on E. coli MG1655Δtol C it was no more than 0.125 µg/mL; in [17], 1 µg/mL (≈ 1.63 µM). Besides, the minimum inhibitory concentration (MIC) is 16 µg/mL (≈ 26.2 µM) in the assay with P. aeruginosa PA 14; 0.5 µg/mL (≈ 0.817 µM) in the assay with P. aeruginosa ATCC 35151; 4 µg/mL (≈ 6.54 µM) in the assay on A. baumannii ATCC 17978; 0.5 µg/mL (≈ 0.817 µM) in the assay with E. coli ATCC 25922; 2 µg/mL (≈ 3.27 µM) in [1]; 8 µg/mL (≈ 13.1 µM) in assay [2]. The MIC stood at 16 µg/mL (≈ 26.2 µM) in assay [3]; 8 µg/mL (≈ 13.1 µM) in [4]; 8 µg/mL (≈ 13.1 µM) in assay [5]; 4 µg/mL (≈ 6.54 µM) in [6]; 8 µg/mL (≈ 13.1 µM) in assay [7]; 8 µg/mL (≈ 13.1 µM) in [8] (setting [18]). The MIC in assay [9], in assay [10], in assay [11] and in assay [12] (setting [19]) was 8 µg/mL (≈ 13.1 µM) in each case.
For the compound `CC1(C)[C@H](NC(=O)/C(=N\OCCOc2ccc3c(c2)CCN(C(=N)N)C3)c2csc(N)n2)C(=O)N1OS(=O)(=O)O` [Compound 3], the MIC in [13] is 8 µg/mL (≈ 13.4 µM); in assay [14], 4 µg/mL (≈ 6.7 µM); in assay [15], 2 µg/mL (≈ 3.35 µM); in [16], 0.25 µg/mL (≈ 0.419 µM); in the assay with E. coli MG1655Δtol C, no more than 0.0039 µg/mL; in the assay on P. aeruginosa PA 14 it was 4 µg/mL (≈ 6.7 µM). Besides, the MIC came to 0.0625 µg/mL (≈ 0.105 µM) in the assay with P. aeruginosa ATCC 35151; 2 µg/mL (≈ 3.35 µM) with A. baumannii ATCC 17978; 0.25 µg/mL (≈ 0.419 µM) in the assay on E. coli ATCC 25922; 4 µg/mL (≈ 6.7 µM) in assay [1]; 8 µg/mL (≈ 13.4 µM) in assay [2]; 16 µg/mL (≈ 26.8 µM) in assay [3]. For the same compound, the MIC in [4] came to 16 µg/mL (≈ 26.8 µM); in assay [5], 16 µg/mL (≈ 26.8 µM); in [6], 16 µg/mL (≈ 26.8 µM); in assay [7], 16 µg/mL (≈ 26.8 µM); in assay [8] (setting [18]), 8 µg/mL (≈ 13.4 µM); in [9], 8 µg/mL (≈ 13.4 µM). Also, the MIC in assay [10] was determined as 8 µg/mL (≈ 13.4 µM); in assay [11], 16 µg/mL (≈ 26.8 µM); in [12] (setting [19]), 8 µg/mL (≈ 13.4 µM).
